Series [1] concerns pyruvic glutamic transaminase. Briefly: hepatic toxicity (Wroblewski's method), pyruvic glutamic transaminase activity in serum. It counts as in vivo, Long Evans rats. How it is done:
The hepatic toxicity is assessed according to Wroblewski's method by measuring the pyruvic glutamic transaminase activity contained in the serum from Long Evans rats treated with an intraperitoneal injection of 25 mg/kg of BCNU or with equipotential doses of the compounds according to the invention.

Series [2] deals with pulmonary metastases. In words: antimetastatic capacity: reduction in number and weight of pulmonary metastases developed after intramuscular inoculation of carcinoma cells. It counts as in vivo. The following applies: 10 mg/kg as a curative treatment for 9 days. On the procedure:
The antimetastatic capacity of the compounds of the present invention is measured by the reduction, compared with untreated animals, in the number and weight of pulmonary metastases developed after intramuscular inoculation of carcinoma cells.

Series [3] relates to tumour-bearing mice (tumorous cells inoculated by intraperitoneal or intramuscular route). Briefly: capacity to increase the life-span of mice bearing tumorous cells (NCI protocols, Geran et al.). It counts as in vivo. Particulars: 5 mg/kg. How it is done:
The compounds according to the invention are tested by their capacity to increase the life-span of mice bearing tumorous cells inoculated by intraperitoneal or intramuscular route in accordance with the protocols edicted by the National Cancer Institute (U.S.A.) and published by R. I. GERAN et al. in Cancer Chemotherapy Reports 1972, part III, Vol. 3 (2), 1-87.
Given per os, these compounds increase the life-span of tumor-bearing animals. The rate of effectiveness of the active doses per os over the active dose by intraperitoneal route is greater for the compounds according to the invention than for the reference products (F. SPREAFICO et al. in Nitrosoureas: current status and new developments, A. W. PRESTAYKO et al. editors, 1981, Academic Press (New York); Experimental Evaluation of Antitumor Drugs in the USA and USSR and clinical correlations; National Cancer Institute Monograph No. 55; National Institutes of Health USA 1980).

Molecules are shown by their SMILES.

For the compound `O=NN(CCCl)C(=O)NCCCl` [BCNU, N-N'-bis(2-chloroethyl)-N-nitrosourea, reference compound], in series [1] (intraperitoneal injection of 25 mg/kg of BCNU or equipotential doses of the compounds), the hepatic toxicity result is “notable hepatic toxicity”.

For `CCOP(=O)(OCC)C(C)NC(=O)N(CCCl)N=O` (stereo not shown) [Example 4, 1-[N-(2-chloroethyl)-N-nitrosoureido]ethylphosphonic acid diethyl ester], in series [2], the formation of metastases result was “prevents the formation of metastases”. In series [1] (25 mg/kg, Long Evans rats), the “serum pyruvic glutamic transaminase level” value is given as “does not lead to an increase in the enzyme level outside the range usually found in untreated rats”. Besides, the long-term survivors entry in series [3] is “inducing long-term survivors”.

The record behind these values is patent US4567169A, “Nitrosourea substituted phosphonates and pharmaceutical use” (priority 1982, dated 1986).
